How the values were obtained:
Spodoptera frugiperda = Spodoptera frugiperda test (spray treatment); format: in vivo; conditions: for Kill rate in % after 7d: active compound concentration 500 g/ha, sprayed corn leaf disks (Zea mays), caterpillars
Method: Spodoptera frugiperda Test (Spray Treatment) [table] To produce a suitable preparation of active compound, 1 part by weight of active compound is mixed with the stated amounts of solvents and emulsifier, and the concentrate is diluted with emulsifier-containing water to the desired concentration. Disks of corn leaves (Zea mays) are sprayed with an active compound preparation of the desired concentration and, after drying, populated with caterpillars of the armyworm (Spodoptera frugiperda). After the desired period of time, the effect in % is determined. 100% means that all caterpillars have been killed; 0% means that none of the caterpillars have been killed.

log P (pH 2.3) = format: physicochemical
Tetranychus urticae = assay: Tetranychus test; OP-resistant (TETRUR spray treatment); format: in vivo; conditions: active compound concentration 100 g/ha, sprayed bean leaf disks (Phaseolus vulgaris), all stages of spider mite
Method: Tetranychus Test; OP-Resistant (TETRUR Spray Treatment)
To produce a suitable preparation of active compound, 1 part by weight of active compound is mixed with the stated amounts of solvents and emulsifier, and the concentrate is diluted with emulsifier-containing water to the desired concentration.
Disks of bean leaves (Phaseolus vulgaris) which are infested by all stages of the greenhouse red spider mite (Tetranychus urticae) are sprayed with an active compound preparation of the desired concentration.
After the desired period of time, the effect in % is determined. 100% means that all spider mites have been killed; 0% means that none of the spider mites have been killed.

| logP (log P (pH 2.3)) | Structure (SMILES) | Kill rate in % after 7d (Spodoptera frugiperda) [%] | also measured |
| --- | --- | --- | --- |
| – | CCn1nnc(-c2ccc(OCCCC3CC(c4cc(OCC=C(Cl)Cl)cc(Cl)c4OC)=NO3)cc2)n1 (stereo not shown) | 100 | – |
| – | COc1c(Cl)cc(OCC=C(Cl)Cl)cc1C1=NOC(CCCOc2ccc(N3CCCC3=O)cc2)C1 (stereo not shown) | 100 | – |
| – | CO/N=C/c1ccc(OCCCC2CC(c3cc(OCC=C(Cl)Cl)cc(Cl)c3OC)=NO2)cc1 (stereo not shown) | 100 | – |
| – | COc1c(Cl)cc(OCC=C(Cl)Cl)cc1C1=NOC(CCCOc2ccc3c(c2)CCCC3=O)C1 (stereo not shown) | 100 | – |
| – | CCn1nnc(-c2ccc(OCCCC3CC(c4cc(OCC=C(Cl)Cl)cc(Cl)c4OC)=NO3)cc2)n1 (racemic) [Example I-1] | – | activity in Spodoptera frugiperda test (Spodoptera frugiperda; spray treatment, result in words): good activity |
| 5.67 | COc1c(Cl)cc(OCC=C(Cl)Cl)cc1-c1nnc(CCCOCc2ccccc2)s1 [2-(3-benzyloxypropyl)-5-[3-chloro-5-(3,3-dichloroallyloxy)-2-methoxyphenyl]-[1,3,4]thiadiazole] | – | – |
| 3.79 | COc1c(Cl)cc(OCC=C(Cl)Cl)cc1C(=O)NNC(=O)CCCOCc1ccccc1 [3-chloro-5-(3,3-dichloroallyloxy)-2-methoxybenzoic acid N′-(4-benzyloxybutyryl)hydrazide] | – | – |
| – | COc1c(Cl)cc(OCC=C(Cl)Cl)cc1C1=NOC(CCCOc2cccc3c2OC(C)(C)C3)C1 (stereo not shown) [drawing 44] | 100 | – |
| – | COc1c(Cl)cc(OCC=C(Cl)Cl)cc1C1=NOC(CCCOc2cccc3c2OC(C)(C)C3)C1 (stereo not shown) [drawing 46] | – | Kill rate in % after 7d (Tetranychus urticae): 90% |
| 2.05 | COc1c(Cl)cc(OCC=C(Cl)Cl)cc1C1=NC(CO)CO1 (stereo not shown) [{2-[3-chloro-5-(3,3-dichloroallyloxy)-2-methoxyphenyl]-4,5-dihydrooxazol-4-yl}methanol] | – | – |

— patent publication US20090042957A1, “Substituted Oxyarenes” (Bayer CropScience AG, priority 2004, published 2009)
